The text below walks through data of patent US7553979B2, “HSP90-inhibiting zearalanol compounds and methods of producing and using same” (Conforma Therapeutics Corporation, priority 2001, dated 2009).

pIC50: −log10 of the molar value. Read-outs that look alike come from different tables or passages of the source.

For the experiment, the system named is HER2. The experiment is described as follows: HER2 inhibition assay (Her-2 degradation by flow cytometry in MCF-7 cells, as manifestation of HSP90 inhibition). In kind it is cell-based. As to the method:
MCF-7 cells are seeded in 24 well plates at a density of approximately 30,000 cells/well and allowed to grow for 16 hours in DMEM supplemented with 10% FBS. Drug (a compound as specified in Table I) is then added at a concentration range of 100 μM to 0.01 uM. Cells are incubated for an additional […]. Drug treated cells and untreated control cells are trypsinized, and incubated at room temperature for 15 minutes with anti Her-2 neu Ab conjugated with phycoerythrin (Becton Dickinson, San Jose Calif.; Cat no. 340552) at a concentration of 0.25 ug/ml, or non-specific control IgGl conjugated with phycoerytirin (Becton Dickinson, San Jose Calif.; Cat no. 340761). Samples were analyzed using a FACS Calibur flow cytometer (Becton Dickinson) equipped with Argon-ion laser that which emits 15 mW of 488 nm light for excitation of the phycoerythrin fluorochrome. 10,000 events were collected per sample. A fluorescence histogram was generated and the mean fluorescence intensity (mfi) of each sample was determined using Cellquest software. The background was defined as the mfi generated from cells incubated with control IgG, and was subtracted from each sample stained with the HER-2/neu Ab. Percent degradation of Her-2 was calculated as follows: % Her-2 degradation=(mfi HER-2 sample)/(mfi HER-2 untreated cells)×100
Compounds of the following formula (constituents as described in Table I) were acquired from Sigma Aldrich (Milwaukee, Wis.) and evaluated for HSP90 inhibition as manifested by HER2 degradation.
The following compounds were synthesized and evaluated for Her 2 degradation, with the results reflected in Table 3.
(In general: Flow cytometry measures light scatter and fluorescence of single cells or particles in a stream.)

Where [1] appears, read: HER2 degradation, commercially acquired compounds (Sigma Aldrich), Table I, read-out: HER2 IC50.
The mark [2] stands for this setting: synthesized compounds, Table 3, read-out: IC50 (Her 2 degradation).

Regarding `C[C@H]1CCCC(=O)CCCCCc2cc(O)cc(O)c2C(=O)O1` [1 (zearalanone), zearalanone, reference compound], the pIC50 (commonly the negative decadic logarithm of the IC50, by convention in mol/L) under setting [1] is 4.89.

With `C[C@H]1CCCC(=O)CCC/C=C/c2cc(O)cc(O)c2C(=O)O1` [2 (zearalenone), zearalenone, reference compound], the negative logarithm of the IC50 (pIC50) under setting [1] is 5.15.

On to `C[C@H]1CCC[C@H](O)CCCCCc2cc(O)cc(O)c2C(=O)O1` [3 (α-zearalanol), α-zearalanol, reference compound], for which, under setting [1], the pIC50 is 4.52.

`C[C@H]1CCC[C@@H](O)CCCCCc2cc(O)cc(O)c2C(=O)O1` [4 (β-zearalanol), β-zearalanol, reference compound]: the pIC50 under setting [1] was 5.40.

As for `C[C@H]1CCC[C@H](O)CCC/C=C/c2cc(O)cc(O)c2C(=O)O1` [5 (α-zearalenol), α-zearalenol, reference compound], the negative-log IC50 (pIC50) under setting [1] is 4.40.

In the case of `C[C@H]1CCC[C@@H](O)CCC/C=C/c2cc(O)cc(O)c2C(=O)O1` [6 (β-zearalenol), β-zearalenol, reference compound], the negative-log IC50 (pIC50) under setting [1] is 6.00.

For the molecule `COc1cc(O)c2c(c1)OCCCCC(O)C(O)CCCCOC2=O` (stereo not shown) [Example 1], under setting [2], the negative logarithm of the IC50 (pIC50) was 4.52.

In the case of `COc1cc2c(c(OC(C)=O)c1)C(=O)OCCCCC=CCCCCO2` [Example 2.1, 1-acetoxy-3-methoxy-6,7,8,9,12,13,14,15-octahydro-5,16-dioxa-benzocyclopentadecen-17-one], under setting [2], the negative-log IC50 (pIC50) was 5.00.

`COc1cc(OC(C)=O)c2c(c1C(C)=O)OCCCCC=CCCCCOC2=O` [Example 2.2, 1-acetoxy-3-methoxy-4-acetyl-6,7,8,9,12,13,14,15-octahydro-5,16-dioxa-benzocyclopentadecen-17-one]: under setting [2], the negative logarithm of the IC50 (pIC50) was 4.40.

On to `COc1cc(O)c2c(c1)OCCCCC(=O)CCCCCOC2=O` [Example 3.1, 1-hydroxy-3-methoxy-6,7,8,9,12,13,14,15-octahydro-11H-5,16-dioxa-benzocyclopentadecene-10,17-dione], for which the pIC50 under setting [2] was 4.52.

`COc1cc(O)c2c(c1)OCCCCCC(=O)CCCCOC2=O` [Example 3.2, 1-Hydroxy-3-methoxy-6,7,8,9,12,13,14,15-octahydro-11H-5,16-dioxa-benzocyclopentadecene-11,17-dione]: the negative-log IC50 (pIC50) under setting [2] is 4.80.

As for `COc1cc(O)c2c(c1)OCCCC(O)C(O)CCCOC2=O` (stereo not shown) [Example 4, 1,9,10-Trihydroxy-3-methoxy-6,7,8,9,10,11,12,13-octahydro-5,14-dioxa-benzocyclotridecen-15-one], the pIC50 under setting [2] is 4.92.

For `COc1cc2c(c(OC(C)=O)c1)C(=O)OCCC/C=C\CCCO2` [Example 5.1, (9Z)-1-acetoxy-3-methoxy-6,7,8,11,12,13-hexahydro-5,14-dioxa-benzocyclotridecen-15-one], the pIC50 under setting [2] was 4.89.

`COc1cc2c(c(OC(C)=O)c1)C(=O)OCCC/C=C/CCCO2` [Example 5.2, (9E)-1-acetoxy-3-methoxy-6,7,8,11,12,13-hexahydro-5,14-dioxa-benzocyclotridecen-15-one]: the pIC50 under setting [2] was 4.82.

Turning to `COc1cc2c(c(OC)c1)C(=O)OC(C)CCC(=O)CCC/C=C/2` (stereo not shown) [Example 6, 2,4-dimethoxy-7-methyl-8,9,12,13-tetrahydro-7H,11H-6-oxa-benzocyclotridecene-5,10-dione], the pIC50 under setting [2] was 4.05.

As for `COc1cc(O)c2c(c1)/C=C/CCCC(=O)CCC(C)OC2=O` (stereo not shown) [Example 7, 4-hydroxy-2-methoxy-7-methyl-8,9,12,13-tetrahydro-7H,11H-6-oxa-benzocyclotridecene-5,10-dione], under setting [2], the negative-log IC50 (pIC50) is 4.22.
